ChEMBL document CHEMBL1146707, “Mechanism-based active site modification of the soybean sterol methyltransferase by 26,27-dehydrocycloartenol” (Bioorg Med Chem Lett, 2004)

Columns and labels:
[1] = tested on: Glycine max; experiment: Maximum rate of inactivation for the soybean sterol methyl transferase (SMT) action was determined
[2] = tested on: Glycine max; experiment: Michaelis-Menten constant was evaluated for the soybean sterol methyl transferase (SMT) action
[3] = tested on: Glycine max; experiment: Catalytic competence for sterol methyl transferase (SMT) assay was determined
[4] = Ratio of kcat to kinact for the compound was determined
[5] = tested on: Glycine max; experiment: Catalytic rate constant was evaluated for the soybean sterol methyl transferase (SMT) action
[6] = Apparent Ki value was calculated; parameters: species or system Glycine max
[7] = Compound (50 uM) and 26,27-DHC for 45 min
[8] = Compound (100 uM) and 26,27-DHC for 45 min
[9] = tested on: Glycine max; experiment: Catalytic competence for soybean sterol methyl transferase (SMT) assay was determined

SMILES	K inact [1] [min⁻¹]	Km [2] [µM]	Activity [3]	Ratio [4]	k cat [5] [s⁻¹]	Ki [6] [µM]	Activity [7] [%]	Activity [8] [%]	Activity [9]
CC(CCC=C1CC1)C1CC[C@@]2(C)C3CCC4C(C)(C)C(O)CCC45CC35CCC12C (some centres not stated)	0.29	10	3e-05	0.06	0.0003	42			
CC(C)=CCCC(C)C1CC[C@@]2(C)C3CCC4C(C)(C)C(O)CCC45CC35CCC12C (some centres not stated)		30			0.01		48	33	3e-05
C=C(CCC(C)C1CC[C@@]2(C)C3CCC4C(C)(C)C(O)CCC45CC35CCC12C)C(C)C (some centres not stated)									3e-05
